Among the data in ChEMBL document CHEMBL1126536, “Synthesis and antimalarial evaluation of 2,3,5-trioxabicyclo[2.2.3]nonane, a model for the putative pharmacophore of artemisinin” (Bioorg Med Chem Lett, 1993) are IC10, IC90 and IC50 values, retold here.

Each structure is given as a SMILES string. Converted amounts (≈) assume the structure as drawn.

Assay [1] has as its system Plasmodium falciparum. As to the kind of experiment: (§1) Inhibitory concentration against chloroquine-sensitive Plasmodium falciparum D-8. Format: functional.
Assay [2] has as its system Plasmodium falciparum. The description is as §1. Format: functional, organism-based.
Assay [3] deals with Plasmodium falciparum. As to the kind of experiment: Inhibitory concentration against […] Plasmodium falciparum W2. Type of assay: functional.
The subject of assay [4] is Plasmodium falciparum. As to the kind of experiment: (§2) Inhibitory concentration against […] Plasmodium falciparum W-2. Format: functional, organism-based.
For assay [5], the system named is Plasmodium falciparum. The assay is described as §2. Format: functional.
Setting [6] is: Plasmodium falciparum, read-out: IC10.
[7] abbreviates: Plasmodium falciparum, read-out: IC90.
Setting [8] is: Plasmodium falciparum, read-out: IC50.

For the compound `C[C@@H]1CC[C@H]2[C@@H](C)C(=O)O[C@@H]3O[C@@]4(C)CC[C@@H]1[C@]32OO4` [ARTEMISININ], the IC10 (commonly the concentration needed for an effect of 10%) with Plasmodium falciparum [1] (setting [6]) was determined as 0.00032 mg/L (≈ 0.00113 µM); in the assay on Plasmodium falciparum [5] (setting [6]), 0.00049 mg/L (≈ 0.00174 µM). For the same compound, the figures for the 90% effect concentration (IC90) with Plasmodium falciparum [1] (setting [7]) and with Plasmodium falciparum [3] (setting [7]) were 0.00213 mg/L (≈ 0.00754 µM) and 0.00105 mg/L (≈ 0.00372 µM), respectively. For the same compound, the IC50 (in general, the point on the concentration scale where inhibition reaches its midpoint) was found to be 0.00083 mg/L (≈ 0.00294 µM) with Plasmodium falciparum [2] (setting [8]) and 0.00072 mg/L (≈ 0.00255 µM) in the assay with Plasmodium falciparum [4] (setting [8]).
For the compound `OC(c1cc(C(F)(F)F)nc2c(C(F)(F)F)cccc12)C1CCCCN1` (stereo unspecified) [MEFLOQUINE], the IC10 with Plasmodium falciparum [1] (setting [6]) turned out to be 0.00122 mg/L (≈ 0.00322 µM); in the assay with Plasmodium falciparum [5] (setting [6]) it was 0.00117 mg/L (≈ 0.00309 µM). For the same compound, the values for the IC90 in the assay with Plasmodium falciparum [1] (setting [7]) and with Plasmodium falciparum [3] (setting [7]) were 0.0385 mg/L (≈ 0.102 µM) and 0.00373 mg/L (≈ 0.00986 µM), respectively. Moreover, the values for the IC50 in the assay with Plasmodium falciparum [2] (setting [8]) and in the assay on Plasmodium falciparum [4] (setting [8]) were 0.00686 mg/L (≈ 0.0181 µM) and 0.00209 mg/L (≈ 0.00552 µM), respectively.
Turning to `C1CC2COC(C1)OO2` (stereo unspecified), the IC10 in the assay with Plasmodium falciparum [1] (setting [6]) amounted to 1.34 mg/L (≈ 10.3 µM). Besides, the IC90 (in general, the point of the concentration-response curve where the effect stands at 90%) in the assay with Plasmodium falciparum [1] (setting [7]) worked out at 4.47 mg/L (≈ 34.3 µM). Further, the IC50 in the assay with Plasmodium falciparum [2] (setting [8]) worked out at 2.45 mg/L (≈ 18.8 µM).
On to `COC1CCCC(OO)CO1` (stereo in doubt), for which the IC10 in the assay on Plasmodium falciparum [1] is 2.65375 mg/L (≈ 16.4 µM); in the assay on Plasmodium falciparum [5], 11.4131 mg/L (≈ 70.4 µM). For the same compound, the IC90 in the assay on Plasmodium falciparum [1] turned out to be 38.08448 mg/L (≈ 235 µM); in the assay with Plasmodium falciparum [3] it was 20.93322 mg/L (≈ 129 µM). Also, the results for the 50% inhibitory concentration (IC50) with Plasmodium falciparum [2] and in the assay with Plasmodium falciparum [4] were 10.0532 mg/L (≈ 62 µM) and 15.45681 mg/L (≈ 95.3 µM), respectively.
In the case of `CCN(CC)CCCC(C)Nc1ccnc2cc(Cl)ccc12` (stereo unspecified) [CHLOROQUINE], the figures for the IC10 in the assay with Plasmodium falciparum [1] (setting [6]) and in the assay on Plasmodium falciparum [5] (setting [6]) were 0.00201 mg/L (≈ 0.00628 µM) and 0.0527 mg/L (≈ 0.165 µM), respectively. Also, the IC90 was 0.00361 mg/L (≈ 0.0113 µM) in the assay with Plasmodium falciparum [1] (setting [7]) and 0.0931 mg/L (≈ 0.291 µM) in the assay on Plasmodium falciparum [3] (setting [7]).
With `COC1CCCC(OO)CO1` (single isomer, unassigned; isomer A), the IC10 with Plasmodium falciparum [1] (setting [6]) came out at 2.46 mg/L (≈ 15.2 µM); in the assay with Plasmodium falciparum [5] it was 3.33249 mg/L (≈ 20.5 µM). Moreover, the IC90 turned out to be 22.8 mg/L (≈ 141 µM) in the assay on Plasmodium falciparum [1] (setting [7]) and 12.8 mg/L (≈ 78.8 µM) with Plasmodium falciparum [3] (setting [7]). In addition, the IC50 in the assay with Plasmodium falciparum [2] (setting [8]) was determined as 7.49 mg/L (≈ 46.2 µM); with Plasmodium falciparum [4] it was 6.52488 mg/L (≈ 40.2 µM).
